Laboratory results from PMC5885141 (Molecular imaging and biology : MIB : the official …, 2014).
IR800 = IRDye800CW

Assays:
[1] = test system: GRPr and NMB-R; details: with or without a chelated metal ion; same assay as in Fig. 2; ref [31]; cited from earlier work
[2] = test system: PC-3 cells; assay: Direct binding assay in PC-3 cells by fluorescence microscopy; assay type: cell-based, human; details: 2 μM, 2 h incubation

Substance	IC50 [1]	Direct binding to PC-3 cells (fluorescence microscopy) [2]
DO3A-CH2CO-G-ABz4-QWAVGHLM-NH2 [AMBA]	2 to 5 nM	–
IR800-GSG-t-BBN: IR800-linker-QWAVGHLM-NH2 with linker = GSG (IR800-GSGQWAVGHLM-NH2)	–	bound to PC-3 cells to widely different extents
